From patent US9255080B2, “Quinazolinedione derivatives as PARP inhibitors” (Janssen Pharmaceutica NV, priority 2004, dated 2016)

Key:
PARP-1 enzyme [1] = target: T1, PARP-1 enzyme (Homo sapiens, UniProt P09874); assay: In vitro scintillation proximity assay (SPA) for PARP-1 inhibitory activity; type: biochemical
Procedure: In Vitro Scintillation Proximity Assay (SPA) for PARP-1 Inhibitory Activity
Compounds of the present invention were tested in an in vitro assay based on SPA technology (proprietary to Amersham Pharmacia Biotech).
In principle, the assay relies upon the well established SPA technology for the detection of poly(ADP-ribosyl)ation of biotinylated target proteins, i.e histones. This ribosylation is induced using nicked DNA activated PARP-1 enzyme and [^3H]-nicotinamide adenine dinucleotide ([^3H]-NAD^+) as ADP-ribosyl donor.
As inducer of PARP-1 enzyme activity, nicked DNA was prepared. For this, 25 mg of DNA (supplier: Sigma) was dissolved in 25 ml DNAse buffer (10 mM Tris-HCl, pH 7.4; 0.5 mg/ml Bovine Serum Albumine (BSA); 5 mM MgCl2.6H2O and 1 mM KCl) to which 50 μl DNAse solution (1 mg/ml in 0.15 M NaCl) was added. After an incubation of 90 min. at 37° C., the reaction was terminated by adding 1.45 g NaCl, followed by a further incubation at 58° C. for 15 min. The reaction mixture was cooled on ice and dialysed at 4° C. for respectively 1.5 and 2 hours against 1.5 l of 0.2 M KCl, and twice against 1.5 l of 0.01 M KCl for 1.5 and 2 h respectively. The mixture was aliquoted and stored at −20° C. Histones (1 mg/ml, type II-A, supplier: Sigma) were biotinylated using the biotinylation kit of Amersham and stored aliquoted at −20° C. A stock solution of 100 mg/ml SPA poly(vinyl toluene) (PVT) beads (supplier: Amersham) was made in PBS. A stock solution of [^3H]-NAD^+ was made by adding 120 μl of [^3H]-NAD^+ (0.1 mCi/ml, supplier: NEN) to 6 ml incubation buffer (50 mM Tris/HCl, pH 8; 0.2 mM DTT; 4 mM MgCl2). A solution of 4 mM NAD^+ (supplier: Roche) was made in incubation buffer (from a 100 mM stock solution in water stored at −20° C.). The PARP-1 enzyme was produced using art known techniques, i.e. cloning and expression of the protein starting from human liver cDNA. Information concerning the used protein sequence of the PARP-1 enzyme including literature references can be found in the Swiss-Prot database under primary accession number P09874. Biotinylated histones and PVT-SPA beads were mixed and pre-incubated for 30 min. at room temperature. PARP-1 enzyme (concentration was lot dependent) was mixed with the nicked DNA and the mixture was pre-incubated for 30 min. at 4° C. Equal parts of this histones/PVT-SPA beads solution and PARP-1 enzyme/DNA solution were mixed and 75 μl of this mixture together with 1 μl of compound in DMSO and 25 μl of [^3H]-NAD^+ was added per well into a 96-well microtiterplate. The final concentrations in the incubation mixture were 2 μg/ml for the biotinylated histones, 2 mg/ml for the PVT-SPA beads, 2 μg/ml for the nicked DNA and between 5-10 μg/ml for the PARP-1 enzyme. After incubation of the mixture for 15 min. at room temperature, the reaction was terminated by adding 100 μl of 4 mM NAD^+ in incubation buffer (final concentration 2 mM) and plates were mixed.
The beads were allowed to sediment for at least 15 min. and plates transferred to a TopCountNXT™ (Packard) for scintillation counting, values were expressed as counts per minute (cpm). For each experiment, controls (containing PARP-1 enzyme and DMSO without compound), a blank incubation (containing DMSO but no PARP-1 enzyme or compound) and samples (containing PARP-1 enzyme and compound dissolved in DMSO) were run in parallel. All compounds tested were dissolved and eventually further diluted in DMSO. In first instance, compounds were tested at a concentration of 10^−5M. […] In each test, the blank value was subtracted from both the control and the sample values. The control sample represented maximal PARP-1 enzyme activity. For each sample, the amount of cpm was expressed as a percentage of the mean cpm value of the controls. […] Herein the effects of test compounds are expressed as pIC50 (the negative log value of the IC50-value).

PARP-1 enzyme [2] = target: T1, PARP-1 enzyme; assay: In vitro filtration assay for PARP-1 inhibitory activity; type: biochemical
Procedure: In Vitro Filtration Assay for PARP-1 Inhibitory Activity
Compounds of the present invention were tested in an in vitro filtration assay assessing PARP-1 activity (triggered in the presence of nicked DNA) by means of its histone poly (ADP-ribosyl)ation activity using [^32P]-NAD as ADP-ribosyl donor. The radioactive ribosylated histones were precipitated by trichloroacetic acid (TCA) in 96-well filterplates and the incorporated [^32P] measured using a scintillation counter
A mixture of histones (stock solution: 5 mg/ml in H2O), NAD^+ (stock solution: 100 mM in H2O), and [^32P]-NAD^+ in incubation buffer (50 mM Tris/HCl, pH 8; 0.2 mM DTT; 4 mM MgCl2) was made. A mixture of the PARP-1 enzyme (5-10 μg/ml) and nicked DNA was also made. The nicked DNA was prepared as described in the in vitro SPA for PARP-1 inhibitory activity. Seventy-five μl of the PARP-1 enzyme/DNA mixture together with 1 μl of compound in DMSO and 25 μl of histones-NAD^+/[^32P]-NAD^+ mixture was added per well of a 96-well filterplate (0.45 μm, supplier Millipore). The final concentrations in the incubation mixture were 2 μg/ml for the histones, 0.1 mM for the NAD^+, […] (0.5 μC) for the [^32P]-NAD^+ and 2 μg/ml for the nicked DNA. Plates were incubated for 15 min. at room temperature and the reaction was terminated by the addition of 10 μl ice cold 100% TCA followed by the addition of 10 μl ice-cold BSA solution (1% in H2O). The protein fraction was allowed to precipitate for 10 min. at 4° C. and plates were vacuum filtered. The plates were subsequently washed with, for each well, 1 ml of 10% ice cold TCA, 1 ml of 5% ice cold TCA and 1 ml of 5% TCA at room temperature. Finally 100 μl of scintillation solution (Microscint 40, Packard) was added to each well and the plates were transferred to a TopCountNXT™ (supplier: Packard) for scintillation counting and values were expressed as counts per minute (cpm). For each experiment, controls (containing PARP-1 enzyme and DMSO without compound), a blank incubation (containing DMSO but no PARP-1 enzyme or compound) and samples (containing PARP-1 enzyme and compound dissolved in DMSO) were run in parallel. All compounds tested were dissolved and eventually further diluted in DMSO. In first instance, compounds were tested at a concentration of 10^−5M. […] In each test, the blank value was subtracted from both the control and the sample values. The control sample represented maximal PARP-1 enzyme activity. For each sample, the amount of cpm was expressed as a percentage of the mean cpm value of the controls. […] Herein the effects of test compounds are expressed as pIC50 (the negative log value of the IC50-value).

[3] = [3H]-NAD+, biotinylated histones, nicked DNA, read-out: in vitro SPA assay PARP-1 pIC50 (converted)
[4] = [32P]-NAD, histones, nicked DNA, read-out: in vitro filter assay PARP-1 pIC50 (converted)

T1 sequence (P09874 whole entry): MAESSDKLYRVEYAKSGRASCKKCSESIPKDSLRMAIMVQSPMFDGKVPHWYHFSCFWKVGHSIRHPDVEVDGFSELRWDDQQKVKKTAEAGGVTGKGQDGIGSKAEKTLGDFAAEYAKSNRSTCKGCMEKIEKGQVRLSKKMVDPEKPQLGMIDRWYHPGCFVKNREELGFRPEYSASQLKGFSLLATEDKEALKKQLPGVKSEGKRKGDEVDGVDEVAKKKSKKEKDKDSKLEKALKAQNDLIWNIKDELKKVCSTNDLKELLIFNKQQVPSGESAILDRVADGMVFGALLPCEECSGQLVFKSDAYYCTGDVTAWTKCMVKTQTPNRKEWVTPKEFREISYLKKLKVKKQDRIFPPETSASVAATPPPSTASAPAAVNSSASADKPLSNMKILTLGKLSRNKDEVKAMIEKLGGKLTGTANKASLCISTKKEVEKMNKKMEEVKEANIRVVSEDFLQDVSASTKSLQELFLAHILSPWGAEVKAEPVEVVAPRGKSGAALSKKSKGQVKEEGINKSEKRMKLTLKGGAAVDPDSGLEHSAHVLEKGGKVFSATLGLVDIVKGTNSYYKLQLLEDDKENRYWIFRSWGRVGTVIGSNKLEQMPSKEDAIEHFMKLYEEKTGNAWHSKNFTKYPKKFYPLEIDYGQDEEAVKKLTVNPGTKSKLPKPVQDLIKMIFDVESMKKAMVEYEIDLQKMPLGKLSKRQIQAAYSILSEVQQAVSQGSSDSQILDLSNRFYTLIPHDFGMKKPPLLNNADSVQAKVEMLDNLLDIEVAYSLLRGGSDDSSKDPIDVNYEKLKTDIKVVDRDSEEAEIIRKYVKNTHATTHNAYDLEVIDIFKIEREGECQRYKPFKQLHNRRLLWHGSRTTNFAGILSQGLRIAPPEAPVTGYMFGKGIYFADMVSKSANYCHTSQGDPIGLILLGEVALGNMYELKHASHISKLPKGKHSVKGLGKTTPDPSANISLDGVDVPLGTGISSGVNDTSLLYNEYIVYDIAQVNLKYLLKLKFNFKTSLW

SMILES	IC50 (PARP-1 enzyme [1]; [3])	IC50 (PARP-1 enzyme [2]; [4])	IC50 (PARP-1 enzyme [1])	IC50 (PARP-1 enzyme [2])
O=c1[nH]c(=O)n(C2CCN(CC(O)C3CCc4ccccc4O3)CC2)c2ccccc12 (stereo in doubt) [Compound 9, 1-[1-[(2S)-2-[(2R)-3,4-dihydro-2H-1-benzopyran-2-yl]-2-hydroxyethyl]-4-piperidinyl]-2,4(1H,3H)-quinazolinedione]	359 nM	2180 nM		
O=c1[nH]c(=O)n(C2CCNCC2)c2ccccc12 [Compound 1]	204 nM	465 nM		
O=C(CCCN1CCC(n2c(=O)[nH]c(=O)c3ccccc32)CC1)c1ccc(F)cc1 [Compound 2]	257 nM	1570 nM		
O=c1[nH]c(=O)n(CCCN2CCC(c3c[nH]c4ccccc34)CC2)c2ccccc12 [Compound 3]			136 nM	1030 nM
O=c1[nH]c(=O)n(C2CCN(CCCn3c(=O)[nH]c4ccccc43)CC2)c2ccccc12 [Compound 5]	348 nM	1740 nM		
O=c1[nH]c(=O)n(CCN2CCC(O)(c3ccc(Cl)cc3)CC2)c2ccccc12 [Compound 6]	167 nM	1330 nM		
O=c1[nH]c(=O)n(CCCN2CCC(O)(c3ccc(Cl)cc3)CC2)c2ccccc12 [Compound 7]	292 nM	3240 nM		
O=C(c1ccc(F)cc1)C1CCN(CCn2c(=O)[nH]c(=O)c3ccccc32)CC1 [Compound 10, 1-[2-[4-(4-fluorobenzoyl)-1-piperidinyl]ethyl]-2,4-(1H,3H)-quinazolinedione]	220 nM	1800 nM		
O=C(c1ccc(F)cc1)C1CCN(CCCn2c(=O)[nH]c(=O)c3ccccc32)CC1 [Compound 11, 1-[3-[4-(4-fluorobenzoyl)-1-piperidinyl]propyl]-2,4-(1H,3H)-quinazolinedione]	221 nM	2720 nM		
